Experimental data published in the kinase profiling compilation of Christmann-Franck et al. (2016).

Experiments:
Test in all cases: radiometric filter-binding kinase assay
[1] = molecular target: FLT1 (human) (UniProt P17948)
[2] = molecular target: MAPK15 (human) (UniProt Q8TD08)
[3] = molecular target: EPHA4 (human) (UniProt P54764)
[4] = molecular target: MAPKAPK3 (human) (UniProt Q16644)
[5] = molecular target: NEK6 (human) (UniProt Q9HC98)
[6] = system: PRKAA1 or PRKAA2 (rat); conditions: accession and sequence are those of the human protein
[7] = molecular target: TTK (human) (UniProt P33981)
[8] = molecular target: CHEK2 (human) (UniProt O96017)
[9] = molecular target: EPHB1 (human) (UniProt P54762)
EPHB1 (human), sequence (P54762 whole entry, looked up): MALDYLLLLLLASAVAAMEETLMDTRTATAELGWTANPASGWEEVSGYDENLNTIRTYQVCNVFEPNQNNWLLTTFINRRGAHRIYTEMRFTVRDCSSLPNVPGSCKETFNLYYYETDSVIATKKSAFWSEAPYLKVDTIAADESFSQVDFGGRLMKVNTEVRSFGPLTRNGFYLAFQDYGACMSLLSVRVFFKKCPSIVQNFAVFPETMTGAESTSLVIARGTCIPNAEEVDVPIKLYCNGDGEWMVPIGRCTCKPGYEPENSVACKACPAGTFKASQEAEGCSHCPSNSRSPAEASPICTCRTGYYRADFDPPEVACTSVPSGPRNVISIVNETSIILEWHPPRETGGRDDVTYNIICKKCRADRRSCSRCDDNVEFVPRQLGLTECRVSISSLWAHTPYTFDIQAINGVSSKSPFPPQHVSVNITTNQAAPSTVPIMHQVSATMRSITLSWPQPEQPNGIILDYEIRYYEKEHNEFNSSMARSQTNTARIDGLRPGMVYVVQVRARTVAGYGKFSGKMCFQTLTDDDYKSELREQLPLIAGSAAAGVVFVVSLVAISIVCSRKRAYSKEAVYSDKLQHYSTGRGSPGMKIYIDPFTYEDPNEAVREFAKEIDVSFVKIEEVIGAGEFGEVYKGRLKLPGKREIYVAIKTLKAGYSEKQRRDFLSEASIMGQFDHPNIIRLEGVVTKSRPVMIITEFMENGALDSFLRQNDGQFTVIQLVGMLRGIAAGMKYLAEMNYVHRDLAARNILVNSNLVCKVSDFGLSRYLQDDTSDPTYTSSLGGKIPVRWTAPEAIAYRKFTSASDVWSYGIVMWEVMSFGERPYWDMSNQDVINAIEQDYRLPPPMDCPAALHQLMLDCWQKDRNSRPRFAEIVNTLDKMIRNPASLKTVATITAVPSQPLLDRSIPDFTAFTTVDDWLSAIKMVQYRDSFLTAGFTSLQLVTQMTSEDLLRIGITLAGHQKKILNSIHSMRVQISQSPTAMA

[10] = molecular target: MAPK1 (human) (UniProt P28482)
MAPK1 (human), sequence (P28482 whole entry, looked up): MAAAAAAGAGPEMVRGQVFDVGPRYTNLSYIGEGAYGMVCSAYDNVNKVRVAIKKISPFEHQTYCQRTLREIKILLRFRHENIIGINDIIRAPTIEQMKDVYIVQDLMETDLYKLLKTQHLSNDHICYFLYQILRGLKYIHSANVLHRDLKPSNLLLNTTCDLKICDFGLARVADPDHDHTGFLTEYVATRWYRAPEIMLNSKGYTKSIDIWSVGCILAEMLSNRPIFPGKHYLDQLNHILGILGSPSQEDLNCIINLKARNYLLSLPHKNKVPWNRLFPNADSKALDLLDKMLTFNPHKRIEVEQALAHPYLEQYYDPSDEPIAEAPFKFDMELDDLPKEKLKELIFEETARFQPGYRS

[11] = molecular target: INSRR (human) (UniProt P14616)
[12] = molecular target: MAPK14 (human) (UniProt Q16539)
MAPK14 (human), sequence (Q16539 whole entry, looked up): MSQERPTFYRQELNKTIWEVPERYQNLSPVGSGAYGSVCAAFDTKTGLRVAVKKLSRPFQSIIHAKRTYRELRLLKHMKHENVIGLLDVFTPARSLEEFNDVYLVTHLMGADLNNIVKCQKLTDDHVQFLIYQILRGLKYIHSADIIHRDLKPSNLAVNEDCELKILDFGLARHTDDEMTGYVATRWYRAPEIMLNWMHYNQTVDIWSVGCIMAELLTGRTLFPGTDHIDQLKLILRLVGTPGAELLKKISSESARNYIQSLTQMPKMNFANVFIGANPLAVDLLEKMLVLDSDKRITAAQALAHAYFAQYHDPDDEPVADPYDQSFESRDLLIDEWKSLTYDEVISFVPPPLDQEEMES

[13] = molecular target: MKNK2 (human) (UniProt Q9HBH9)
[14] = molecular target: CDK2 CCNA2 (human) (UniProt P20248+P24941)
[15] = molecular target: PAK7 (human) (UniProt Q9P286)
PAK7 (human), sequence (Q9P286 whole entry, looked up): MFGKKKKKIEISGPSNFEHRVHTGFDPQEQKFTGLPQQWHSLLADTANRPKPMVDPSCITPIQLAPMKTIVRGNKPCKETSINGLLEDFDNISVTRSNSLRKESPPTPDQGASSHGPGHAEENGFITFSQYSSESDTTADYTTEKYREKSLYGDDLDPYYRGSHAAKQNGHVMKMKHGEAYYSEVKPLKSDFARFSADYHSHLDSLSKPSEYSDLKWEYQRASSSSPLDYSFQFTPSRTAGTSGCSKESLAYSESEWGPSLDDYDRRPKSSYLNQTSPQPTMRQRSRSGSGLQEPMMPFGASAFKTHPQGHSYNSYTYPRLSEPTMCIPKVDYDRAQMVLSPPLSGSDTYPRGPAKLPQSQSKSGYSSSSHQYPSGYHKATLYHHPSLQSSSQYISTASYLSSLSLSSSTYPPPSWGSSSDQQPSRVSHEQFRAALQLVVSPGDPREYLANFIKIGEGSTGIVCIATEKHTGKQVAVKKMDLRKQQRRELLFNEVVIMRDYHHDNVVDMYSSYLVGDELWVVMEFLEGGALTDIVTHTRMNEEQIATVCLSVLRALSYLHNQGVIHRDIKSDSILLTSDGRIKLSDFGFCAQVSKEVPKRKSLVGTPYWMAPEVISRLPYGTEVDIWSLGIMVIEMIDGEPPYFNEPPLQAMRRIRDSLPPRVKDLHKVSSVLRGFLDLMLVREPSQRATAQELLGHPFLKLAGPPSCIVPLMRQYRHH

[16] = molecular target: RIPK2 (human) (UniProt O43353)
RIPK2 (human), sequence (O43353 whole entry, looked up): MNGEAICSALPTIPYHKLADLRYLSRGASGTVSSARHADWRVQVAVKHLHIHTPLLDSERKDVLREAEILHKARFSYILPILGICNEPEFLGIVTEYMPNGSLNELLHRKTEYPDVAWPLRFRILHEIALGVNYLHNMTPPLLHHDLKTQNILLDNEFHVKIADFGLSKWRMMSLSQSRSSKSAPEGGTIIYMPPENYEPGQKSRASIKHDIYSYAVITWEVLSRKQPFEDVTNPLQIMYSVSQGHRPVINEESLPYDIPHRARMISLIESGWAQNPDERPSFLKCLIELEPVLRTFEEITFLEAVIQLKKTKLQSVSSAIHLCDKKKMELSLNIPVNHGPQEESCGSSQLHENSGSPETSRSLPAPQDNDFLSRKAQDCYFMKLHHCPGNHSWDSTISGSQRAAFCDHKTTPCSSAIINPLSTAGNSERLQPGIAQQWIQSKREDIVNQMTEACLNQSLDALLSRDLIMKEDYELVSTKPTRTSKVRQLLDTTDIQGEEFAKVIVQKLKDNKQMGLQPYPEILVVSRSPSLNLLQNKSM

[17] = molecular target: CSNK1D (human) (UniProt P48730)
CSNK1D (human), sequence (P48730 whole entry, looked up): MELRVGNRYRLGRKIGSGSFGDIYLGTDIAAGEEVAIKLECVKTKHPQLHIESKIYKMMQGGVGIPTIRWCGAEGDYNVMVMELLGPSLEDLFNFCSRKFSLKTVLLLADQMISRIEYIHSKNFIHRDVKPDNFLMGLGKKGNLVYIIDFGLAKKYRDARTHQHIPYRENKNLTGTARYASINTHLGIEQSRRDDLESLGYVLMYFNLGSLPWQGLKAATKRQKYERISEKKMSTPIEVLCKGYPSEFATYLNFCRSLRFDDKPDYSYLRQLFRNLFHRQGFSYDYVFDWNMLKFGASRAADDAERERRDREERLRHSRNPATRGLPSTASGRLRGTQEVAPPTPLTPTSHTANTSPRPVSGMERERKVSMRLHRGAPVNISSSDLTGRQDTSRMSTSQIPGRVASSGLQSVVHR

[18] = molecular target: NEK2 (human) (UniProt P51955); conditions: compound 0.01 µM

EPHA4 (human), sequence (P54764 whole entry, looked up): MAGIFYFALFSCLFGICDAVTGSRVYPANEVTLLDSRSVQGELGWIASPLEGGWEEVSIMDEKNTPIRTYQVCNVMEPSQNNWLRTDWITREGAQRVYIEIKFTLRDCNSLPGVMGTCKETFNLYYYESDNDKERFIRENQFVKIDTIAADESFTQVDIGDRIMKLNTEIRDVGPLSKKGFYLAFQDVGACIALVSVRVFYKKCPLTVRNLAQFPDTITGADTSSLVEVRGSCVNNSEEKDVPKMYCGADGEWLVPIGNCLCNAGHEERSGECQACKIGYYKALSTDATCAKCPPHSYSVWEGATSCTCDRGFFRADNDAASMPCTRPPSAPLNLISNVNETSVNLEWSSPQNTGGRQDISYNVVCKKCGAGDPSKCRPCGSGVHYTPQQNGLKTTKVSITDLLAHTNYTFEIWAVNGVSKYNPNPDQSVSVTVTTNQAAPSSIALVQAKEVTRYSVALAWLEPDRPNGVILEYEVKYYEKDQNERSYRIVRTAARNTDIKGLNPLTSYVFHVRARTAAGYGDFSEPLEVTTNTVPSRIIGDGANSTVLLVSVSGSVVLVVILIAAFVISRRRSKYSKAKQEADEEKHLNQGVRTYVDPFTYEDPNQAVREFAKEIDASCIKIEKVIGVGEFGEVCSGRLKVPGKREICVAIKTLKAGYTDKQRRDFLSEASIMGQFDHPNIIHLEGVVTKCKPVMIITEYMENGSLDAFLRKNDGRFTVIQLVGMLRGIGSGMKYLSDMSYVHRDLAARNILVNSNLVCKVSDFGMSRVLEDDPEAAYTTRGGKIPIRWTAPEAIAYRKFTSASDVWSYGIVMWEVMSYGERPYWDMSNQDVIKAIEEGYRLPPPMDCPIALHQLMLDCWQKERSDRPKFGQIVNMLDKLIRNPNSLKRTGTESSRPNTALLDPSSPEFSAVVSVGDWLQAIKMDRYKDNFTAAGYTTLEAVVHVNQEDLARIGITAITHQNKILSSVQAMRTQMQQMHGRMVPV
MAPK15 (human), sequence (Q8TD08 whole entry, looked up): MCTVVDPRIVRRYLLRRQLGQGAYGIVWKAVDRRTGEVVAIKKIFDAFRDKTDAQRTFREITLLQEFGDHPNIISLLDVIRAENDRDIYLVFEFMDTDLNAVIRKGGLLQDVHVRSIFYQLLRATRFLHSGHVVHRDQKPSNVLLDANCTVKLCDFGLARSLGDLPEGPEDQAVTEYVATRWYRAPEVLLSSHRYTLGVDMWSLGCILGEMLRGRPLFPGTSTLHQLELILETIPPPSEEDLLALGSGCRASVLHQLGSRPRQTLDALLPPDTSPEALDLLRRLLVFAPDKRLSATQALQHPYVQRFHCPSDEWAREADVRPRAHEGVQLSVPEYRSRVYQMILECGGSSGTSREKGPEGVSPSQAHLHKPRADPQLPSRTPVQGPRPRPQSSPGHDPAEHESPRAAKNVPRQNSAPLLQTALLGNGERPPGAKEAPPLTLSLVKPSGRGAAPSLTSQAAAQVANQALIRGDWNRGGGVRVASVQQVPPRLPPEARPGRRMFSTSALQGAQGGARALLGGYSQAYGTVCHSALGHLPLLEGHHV

## CNC(=O)C1[C@H]2O[C@@](C)([C@@H]1N)n1c3ccccc3c3c4c(c5c6ccccc6n2c5c31)C(=O)NC4 (some centres not stated)
[1]; compound 0.01 µM
  residual activity: 17%
[1]; compound 0.1 µM
  residual activity: 13%
[1]; compound 1.0 µM
  residual activity: 4%
[2]; compound 0.01 µM
  residual activity: 48%
[2]; compound 0.1 µM
  residual activity: 8%
[2]; compound 1.0 µM
  residual activity: 11%
[3]; compound 0.01 µM
  residual activity: 95%
[3]; compound 0.1 µM
  residual activity: 61%
[3]; compound 1.0 µM
  residual activity: 16%
[4]; compound 0.01 µM
  residual activity: 91%
[4]; compound 0.1 µM
  residual activity: 74%
[4]; compound 1.0 µM
  residual activity: 29%
[5]; compound 0.01 µM
  residual activity: 87%
[5]; compound 0.1 µM
  residual activity: 89%
[5]; compound 1.0 µM
  residual activity: 72%
[6]; compound 0.01 µM
  residual activity: 6%
[6]; compound 0.1 µM
  residual activity: 2%
[6]; compound 1.0 µM
  residual activity: 1%
[7]; compound 0.01 µM
  residual activity: 37%
[7]; compound 0.1 µM
  residual activity: 13%
[7]; compound 1.0 µM
  residual activity: 7%
[8]; compound 0.01 µM
  residual activity: 24%
[8]; compound 0.1 µM
  residual activity: 5%
[8]; compound 1.0 µM
  residual activity: 2%
[9]; compound 0.01 µM
  residual activity: 41%
[9]; compound 0.1 µM
  residual activity: 56%
[9]; compound 1.0 µM
  residual activity: 25%
[10]; compound 0.01 µM
  residual activity: 22%
[10]; compound 0.1 µM
  residual activity: 6%
[10]; compound 1.0 µM
  residual activity: 5%
[11]; compound 0.01 µM
  residual activity: 47%
[11]; compound 0.1 µM
  residual activity: 12%
[11]; compound 1.0 µM
  residual activity: 9%
[12]; compound 0.01 µM
  residual activity: 106%
[12]; compound 0.1 µM
  residual activity: 109%
[12]; compound 1.0 µM
  residual activity: 105%
[13]; compound 0.01 µM
  residual activity: 93%
[13]; compound 0.1 µM
  residual activity: 12%
[13]; compound 1.0 µM
  residual activity: 10%
[14]; compound 0.01 µM
  residual activity: 18%
[14]; compound 0.1 µM
  residual activity: 9%
[14]; compound 1.0 µM
  residual activity: 8%
[15]; compound 0.01 µM
  residual activity: 17%
[15]; compound 0.1 µM
  residual activity: 4%
[15]; compound 1.0 µM
  residual activity: 2%
[16]; compound 0.01 µM
  residual activity: 80%
[16]; compound 0.1 µM
  residual activity: 26%
[16]; compound 1.0 µM
  residual activity: 9%
[17]; compound 0.01 µM
  residual activity: 109%
[17]; compound 0.1 µM
  residual activity: 107%
[17]; compound 1.0 µM
  residual activity: 96%
[18]
  residual activity: 105%
